Test results from paper PMC4171606, “A novel copper(I) complex induces ER-stress-mediated apoptosis and sensitizes B-acute lymphoblastic leukemia cells to chemotherapeutic agents” (Oncotarget, 2014).

Columns and labels:
Format in all cases: cell-based, human
[1] = test system: Blast cells from B-ALL patients; experiment: MTT growth inhibition on primary cultures, 24 h; details: B-acute lymphoblastic leukemia patients primary cultures
Procedure: CP growth inhibitory activity was measured on primary cultures derived from pediatric patients affected by B-acute lymphoblastic leukemia. […] In particular, in resting and in PHA-stimulated PBMC, and in CD19^+ cells GI50 was higher than 10 μM confirming that CP preferentially affects leukemia cells.
FIGURE 6 CP effects on B-ALL primary cultures (A) Blast cells from six B-ALL patients were incubated for 24 h with different concentrations of CP. For the sake of comparison CD19^+ cells from peripheral blood of healthy donors, and PBMC were also incubated with CP in the presence or absence of PHA. Cell viability were assayed by MTT analysis. Data are represented as mean ± S.E.M of four independent experiments. […] Cell viability was evaluated on the whole population by flow cytometry after staining the cells with Annexin-V-FITC and PI. are represented as mean ± S.E.M of 3 independent experiments. […]
The human leukemia cell lines RS 4;11, SEM, REH, RCH-ACV, MHH-CALL2, Jurkat, CCRF-CEM, HSB2, HL-60, K562, THP-1, MV4;11 were purchased from the American Type Culture Collection. […] The cytotoxic activity of CP was determined using a standard 3-[4,5-dimethylthiazol-2-yl]-2,5-diphenyltetrazodium bromide (MTT) based colorimetric assay (Sigma-Aldrich, Italy). […] After different times, cell survival was determined by the addition of an MTT solution as previously described. […]

CHOP = experiment: Western blot, ER stress marker CHOP; details: SEM and RS4;11, CP 2.5 μM
Procedure: Moreover we found an increase in CHOP expression starting from 3 h of CP treatment. […] Whilst GRP78, due to its chaperon activity, exerts a protective function, CHOP promotes ER-stress cell death, thus the rapid activation of pro-death signals and the late activation of pro-survival chaperone GRP78 could explain the commitment toward apoptosis induced by CP. Moreover, in unresolvable stress conditions, an increased CHOP expression has been correlated to the induction of the expression of many apoptotic genes and to the down-regulation prosurvival genes, such as Bcl-2 [30].
FIGURE 4 CP induces ER stress Western Blot analysis showing expression of GRP78 and CHOP in SEM (A) and in RS4;11 (B) cells. Cells were treated with CP 2.5 μM for the indicated times. (C) PCR analysis showing the induction of XBP1 splicing in SEM and RS4;11 cells. Cells were treated with CP (2.5 μM) or Tunicamycin (2 μg/ml) as positive control for 12 h.
Cells were treated with CP and, after different times, were collected, centrifuged and washed with ice cold phosphate-buffered saline (PBS). The pellet was then resuspended in lysis buffer as described. The protein concentration in the supernatant was determined using the BCA protein assay (Pierce, Italy). […]

[2] = test system: caspase-9, caspase-3 and -7; experiment: Western blot, caspase-9, cleaved caspase-7, caspase-3 and PARP; details: SEM and RS4;11, CP 2.5 μM
Procedure: FIGURE 2 CP induces caspase-dependent apoptosis without mitochondria involvement (A) Assessment of mitochondrial membrane potential (ΔΨmt) after treatment of RS4;11 and SEM cells with CP (2.5 μM) for the indicated times. Cells were stained with the fluorescent probe JC-1. Data are represented as mean ± S.E.M. of three independent experiments. (B) Flow cytometric analysis of RS4;11 and SEM cells treated with CP (2.5 μM) for 24 h showing cytochrome c labeled with a monoclonal antibody conjugated to FITC. Representative image of three experiments with similar results. (C) Cells were incubated with CP 2.5 μM and 5 μM in the presence or absence of the pan-caspase inhibitor z-VAD.fmk (100 μM). Cell viability was determined after 48 h by MTT assay. Data are represented as mean ± S.E.M. of three independent experiments performed in triplicate. *p<0.01 vs CP alone. (D) Western blot analysis of Bcl-2, cleaved caspase-12, caspase-9, cleaved caspase-7, caspase-3 and PARP after treatment of SEM and RS4;11 cells with CP (2.5 μM) for the indicated times. To confirm equal protein loading, each membrane was stripped and reprobed with anti-β-actin antibody. […]
Cells were treated with CP and, after different times, were collected, centrifuged and washed with ice cold phosphate-buffered saline (PBS). […] The protein concentration in the supernatant was determined using the BCA protein assay (Pierce, Italy). […]

**Q.** With `F[P-](F)(F)(F)(F)F.OCP(CO)CO.OCP(CO)CO.OCP(CO)CO.OCP(CO)CO.[Cu+]` [CP, [Cu(thp)4][PF6]] as the molecule, how does the GI50 [1] read?
**A.** 2300 nM

**Q.** And the “onset of increase in CHOP expression” value (CHOP)?
**A.** ≥ 3 h

**Q.** What about the “onset of caspase-9 activation and cleavage of caspase-3 and -7” value [2] of the same molecule?
**A.** ≥ 6 h
